Reference: ChEMBL document CHEMBL1201862, “PubChem BioAssay data set” (2004)
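How tested: cells in 96-well plates exposed to compound for 48 hours at five concentrations. The concentration for 50% growth inhibition is given as GI50.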 The source made the active and inactive calls. Rule as the data show it: active = GI50 up to about 1.1 µM and inactive = higher.

Key:
Assay in all cases: inhibition of tumour cell growth, NCI panel, 48 h
[1] = test system: SK-MEL-28
[2] = test system: LXFL 529
[3] = test system: A549
[4] = test system: KM12
[5] = test system: SNB-75
[6] = test system: HCT-116
[7] = test system: HCC 2998
[8] = test system: OVCAR-8
[9] = test system: HOP-92
[10] = test system: 786-0
[11] = test system: HOP-18
[12] = test system: M19-MEL
[13] = test system: IGROV-1
[14] = test system: MOLT-4
[15] = test system: DMS-114
[16] = test system: XF498
[17] = test system: COLO 205
[18] = test system: DMS-273
[19] = test system: ACHN
[20] = test system: SF-539
[21] = test system: OVCAR-3
[22] = test system: CAKI-1
[23] = test system: NCI-H23
[24] = test system: U-251
[25] = test system: HL-60
[26] = test system: SN12C
[27] = test system: UACC-257
[28] = test system: SK-MEL-2
[29] = test system: KM-20L2
[30] = test system: SK-MEL-5
[31] = test system: SW-620
[32] = test system: TK-10
[33] = test system: HOP-62
[34] = test system: SNB-78
[35] = test system: UO-31
[36] = test system: NCI-H226
[37] = test system: RXF 393
[38] = test system: A498
[39] = test system: SF-268
[40] = test system: SK-OV-3
[41] = test system: OVCAR-4
[42] = test system: SR
[43] = test system: EKVX
[44] = test system: SF-295
[45] = test system: CCRF-CEM
[46] = test system: NCI-H460
[47] = test system: Malme-3M
[48] = test system: M14
[49] = test system: HT-29
[50] = test system: HCT-15
[51] = test system: DLD-1
[52] = test system: UACC-62
[53] = test system: SNB-19
[54] = test system: NCI-H522
[55] = test system: K562
[56] = test system: RXF 631
[57] = test system: RPMI-8226
[58] = test system: OVCAR-5
[59] = test system: LOX IMVI

Cc1cc(Cl)ccc1N1C(=O)C(=O)C(c2nc3ccccc3o2)C(=O)C1=O
GI50 [1]: 96.4 µM (inactive) | GI50 [2]: 71.3 µM (inactive) | GI50 [3]: > 100 µM (inactive) | GI50 [4]: > 100 µM (inactive) | GI50 [5]: 63.4 µM (inactive) | GI50 [6]: 46.5 µM (inactive) | GI50 [7]: > 100 µM (inactive) | GI50 [8]: > 100 µM (inactive) | GI50 [9]: 58.7 µM (inactive) | GI50 [10]: > 100 µM (inactive) | GI50 [11]: > 100 µM (inactive) | GI50 [12]: > 100 µM (inactive) | GI50 [13]: 35.6 µM (inactive) | GI50 [14]: 30.4 µM (inactive) | GI50 [15]: 68.9 µM (inactive) | GI50 [16]: > 100 µM (inactive) | GI50 [17]: 31.1 µM (inactive) | GI50 [18]: > 100 µM (inactive) | GI50 [19]: > 100 µM (inactive) | GI50 [20]: > 100 µM (inactive) | GI50 [21]: 61.1 µM (inactive) | GI50 [22]: > 100 µM (inactive) | GI50 [23]: > 100 µM (inactive) | GI50 [24]: > 100 µM (inactive) | GI50 [25]: 33.2 µM (inactive) | GI50 [26]: > 100 µM (inactive) | GI50 [27]: 71 µM (inactive) | GI50 [28]: > 100 µM (inactive) | GI50 [29]: > 100 µM (inactive) | GI50 [30]: > 100 µM (inactive) | GI50 [31]: 43.7 µM (inactive) | GI50 [32]: > 100 µM (inactive) | GI50 [33]: > 100 µM (inactive) | GI50 [34]: > 100 µM (inactive) | GI50 [35]: > 100 µM (inactive) | GI50 [36]: > 100 µM (inactive) | GI50 [37]: > 100 µM (inactive) | GI50 [38]: > 100 µM (inactive) | GI50 [39]: > 100 µM (inactive) | GI50 [40]: > 100 µM (inactive) | GI50 [41]: > 100 µM (inactive) | GI50 [42]: 34 µM (inactive) | GI50 [43]: > 100 µM (inactive) | GI50 [44]: > 100 µM (inactive) | GI50 [45]: 23.7 µM (inactive) | GI50 [46]: > 100 µM (inactive) | GI50 [47]: > 100 µM (inactive) | GI50 [48]: 67 µM (inactive) | GI50 [49]: 65.8 µM (inactive) | GI50 [50]: > 100 µM | GI50 [51]: 32.9 µM (inactive) | GI50 [52]: 65 µM (inactive) | GI50 [53]: > 100 µM (inactive) | GI50 [54]: > 100 µM (inactive)

CCCN(CCC)C1CC(n2cc(C)c(=O)[nH]c2=O)OC1CO (centres undefined)
GI50 [1]: > 100 µM (inactive) | GI50 [2]: > 100 µM (inactive) | GI50 [5]: > 100 µM (inactive) | GI50 [6]: > 100 µM (inactive) | GI50 [7]: > 100 µM (inactive) | GI50 [9]: > 100 µM (inactive) | GI50 [10]: > 100 µM (inactive) | GI50 [12]: > 100 µM (inactive) | GI50 [13]: > 100 µM (inactive) | GI50 [14]: > 100 µM (inactive) | GI50 [15]: > 100 µM (inactive) | GI50 [17]: > 100 µM (inactive) | GI50 [18]: > 100 µM (inactive) | GI50 [19]: > 100 µM (inactive) | GI50 [20]: > 100 µM (inactive) | GI50 [55]: > 100 µM (inactive) | GI50 [22]: > 100 µM (inactive) | GI50 [23]: > 100 µM (inactive) | GI50 [25]: > 100 µM (inactive) | GI50 [26]: > 100 µM (inactive) | GI50 [56]: > 100 µM (inactive) | GI50 [28]: > 100 µM (inactive) | GI50 [33]: > 100 µM (inactive) | GI50 [34]: > 100 µM (inactive) | GI50 [35]: > 100 µM (inactive) | GI50 [36]: > 100 µM (inactive) | GI50 [39]: > 100 µM (inactive) | GI50 [57]: > 100 µM (inactive) | GI50 [40]: > 100 µM (inactive) | GI50 [41]: > 100 µM (inactive) | GI50 [42]: > 100 µM (inactive) | GI50 [45]: > 100 µM (inactive) | GI50 [46]: > 100 µM (inactive) | GI50 [47]: > 100 µM (inactive) | GI50 [48]: > 100 µM (inactive) | GI50 [51]: > 100 µM (inactive) | GI50 [52]: > 100 µM (inactive) | GI50 [54]: > 100 µM (inactive)

COC(=O)N/N=C(/Cc1occc(=O)c1O)C(=O)Nc1ccc([N+](=O)[O-])cc1[N+](=O)[O-]
GI50 [1]: > 100 µM (inactive) | GI50 [2]: > 100 µM (inactive) | GI50 [3]: > 100 µM (inactive) | GI50 [4]: > 100 µM (inactive) | GI50 [5]: > 100 µM (inactive) | GI50 [6]: > 100 µM (inactive) | GI50 [7]: > 100 µM (inactive) | GI50 [8]: > 100 µM (inactive) | GI50 [9]: > 100 µM (inactive) | GI50 [10]: > 100 µM (inactive) | GI50 [11]: > 100 µM (inactive) | GI50 [12]: > 100 µM (inactive) | GI50 [13]: > 100 µM (inactive) | GI50 [14]: > 100 µM (inactive) | GI50 [15]: > 100 µM (inactive) | GI50 [16]: > 100 µM (inactive) | GI50 [17]: > 100 µM (inactive) | GI50 [18]: > 100 µM (inactive) | GI50 [19]: > 100 µM (inactive) | GI50 [20]: > 100 µM (inactive) | GI50 [58]: > 100 µM (inactive) | GI50 [55]: > 100 µM (inactive) | GI50 [22]: > 100 µM (inactive) | GI50 [23]: > 100 µM (inactive) | GI50 [24]: > 100 µM (inactive) | GI50 [25]: > 100 µM (inactive) | GI50 [26]: > 100 µM (inactive) | GI50 [27]: > 100 µM (inactive) | GI50 [28]: > 100 µM (inactive) | GI50 [29]: > 100 µM (inactive) | GI50 [30]: > 100 µM (inactive) | GI50 [31]: > 100 µM (inactive) | GI50 [32]: > 100 µM (inactive) | GI50 [33]: > 100 µM (inactive) | GI50 [34]: > 100 µM (inactive) | GI50 [35]: > 100 µM (inactive) | GI50 [36]: > 100 µM (inactive) | GI50 [37]: > 100 µM (inactive) | GI50 [38]: > 100 µM (inactive) | GI50 [39]: > 100 µM (inactive) | GI50 [57]: > 100 µM (inactive) | GI50 [59]: > 100 µM (inactive) | GI50 [40]: > 100 µM (inactive) | GI50 [41]: > 100 µM (inactive) | GI50 [42]: > 100 µM (inactive) | GI50 [43]: > 100 µM (inactive) | GI50 [44]: > 100 µM (inactive) | GI50 [45]: > 100 µM (inactive) | GI50 [46]: > 100 µM (inactive) | GI50 [47]: > 100 µM (inactive) | GI50 [48]: > 100 µM (inactive) | GI50 [49]: > 100 µM (inactive) | GI50 [50]: > 100 µM | GI50 [51]: > 100 µM (inactive) | GI50 [52]: > 100 µM (inactive) | GI50 [53]: > 100 µM (inactive) | GI50 [54]: > 100 µM (inactive)
